{"source": "paper PMC11050599", "about": "“Novel Tetracyclic Azaphenothiazines with the Quinoline Ring as New Anticancer and Antibacterial Derivatives of Chlorpromazine” (International Journal of Molecular Sciences, 2024)", "key": {"A549 (lung cancer)": {"test_system": "A549 (lung cancer)", "assay": "MTT assay, A549 cells", "format": "cell-based, human", "conditions": "Homo sapiens, A549, 72 h, read-out: IC50 A549", "method_in_brief": "(§1)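 After a 72 h incubation of 1 × 10^4 cells per well with compound, absorbance from MTT reduction was converted to percent of the medium-only control.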"}, "[1]": {"test_system": "MDA-MB-231 (breast cancer)", "assay": "MTT assay, MDA-MB-231 cells", "format": "cell-based, human", "method_in_brief": "as §1"}, "[2]": {"test_system": "HaCaT (immortalized human keratinocytes)", "assay": "MTT assay, HaCaT normal cells", "format": "cell-based", "conditions": "Homo sapiens, HaCaT, 72 h, read-out: IC50 HaCaT (Table 3)", "method_in_brief": "as §1"}, "[3]": {"test_system": "MiaPaCa-2 (pancreas cancer)", "assay": "MTT assay, MiaPaCa-2 cells", "format": "cell-based, human", "description": "(§2) The human cell lines, such as A549 (lung cancer), MDA-MB-231 (breast cancer), MiaPaca-2 (pancreatic cancer), PC3 (metastatic prostate cancer), HCT-116 (colon carcinoma), and HaCaT (immortalized keratinocytes), were sourced from the American Type Culture Collection (ATCC) in Rockville, USA. Culturing conditions varied as follows: HCT116 cells were cultured in MEM (ThermoSci, Waltham, MA, USA), A549, MDA-MB-231, MiaPaca, HaCaT cells in DMEM High Glucose and PC3 cells were cultured in RPMI (Biowest SAS, Nuaillé, France). The growth medium consisted of 10% fetal bovine serum (FBS, Sigma-Aldrich, St. Louis, MO, USA), 20 mM HEPES (Biowest, Nuaillé, France), and antibiotics (100 U/mL of penicillin and 100 μg/mL of streptomycin) from Gibco, Grand Island, NY, USA. […] These compounds were added to 96-well plates containing study cells (1 × 10^4 cells per well) and incubated for 72 h. […] Cell absorbance results were incorporated into the formula for calculating the relative MTT level (%), enabling the assessment of cell viability following exposure to the test compounds. The cell viability percentage represents the MTT reduction in cells treated with the test compounds compared to the control sample, where only the medium was added to the cells."}, "PC3 (prostate cancer)": {"test_system": "PC3 (prostate cancer)", "assay": "MTT assay, PC3 cells", "format": "cell-based, human", "description": "as §2"}, "HCT116 (colon cancer)": {"test_system": "HCT116 (colon cancer)", "assay": "MTT assay, HCT116 cells", "format": "cell-based, human", "description": "as §2"}, "E. coli ATCC 25922": {"test_system": "E. coli ATCC 25922", "assay": "MIC broth microdilution", "format": "cell-based", "method_in_brief": "(§3)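 Two-fold serial broth microdilution in Mueller-Hinton II broth, final inoculum adjusted to […]. Compounds dissolved in DMSO, final solvent at most 1%.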"}, "P. aeruginosa ATCC 15442": {"test_system": "P. aeruginosa ATCC 15442", "assay": "MIC broth microdilution", "format": "cell-based", "conditions": "Pseudomonas aeruginosa, ATCC15442, 19 h, read-out: MIC P. aeruginosa ATCC 15442", "method_in_brief": "as §3"}, "S. aureus ATCC 25923": {"test_system": "S. aureus ATCC 25923", "assay": "MIC broth microdilution", "format": "cell-based", "conditions": "Staphylococcus aureus, ATCC25923, 19 h, read-out: MIC S. aureus ATCC 25923", "method_in_brief": "as §3"}, "S. aureus ATCC 29213": {"test_system": "S. aureus ATCC 29213", "assay": "MIC broth microdilution", "format": "cell-based", "conditions": "Staphylococcus aureus, ATCC29213, 19 h, read-out: MIC S. aureus ATCC 29213", "method_in_brief": "as §3"}, "S. aureus ATCC 6538": {"test_system": "S. aureus ATCC 6538", "assay": "MIC broth microdilution", "format": "cell-based", "conditions": "Staphylococcus aureus, ATCC6538, 19 h, read-out: MIC S. aureus ATCC 6538", "method_in_brief": "as §3"}, "S. aureus NCTC 4163": {"test_system": "S. aureus NCTC 4163", "assay": "MIC broth microdilution", "format": "cell-based", "conditions": "Staphylococcus aureus, NCTC4163, 19 h, read-out: MIC S. aureus NCTC 4163", "method_in_brief": "as §3"}, "[4]": {"test_system": "S. epidermidis ATCC 12228", "assay": "MIC broth microdilution", "format": "cell-based", "conditions": "Staphylococcus epidermidis, ATCC12228, 19 h, read-out: MIC S. epidermidis ATCC 12228", "method_in_brief": "as §3"}, "[5]": {"test_system": "S. epidermidis ATCC 35984", "assay": "MIC broth microdilution", "format": "cell-based", "conditions": "Staphylococcus epidermidis, ATCC35984, 19 h, read-out: MIC S. epidermidis ATCC 35984", "method_in_brief": "as §3"}, "cancer cell lines": {"test_system": "cancer cell lines", "assay": "MTT assay, summary over several cell lines", "format": "cell-based, human", "conditions": "Homo sapiens, read-out: IC50 range toward four cancerous cell lines", "description": "as §2"}, "A549 cells [6]": {"test_system": "A549 cells", "assay": "Annexin V-FITC/PI apoptosis flow cytometry, A549", "format": "cell-based, human", "conditions": "representative dot plot, Figure 4A, IC50, 72 h", "description": "(§4) To analyze the number of cells in early apoptosis, late apoptosis, or necrosis, A549, MiaPaca-2, and HCT-116 cell lines were cultured in 6-well plates with a seeding density of 1 × 10^5 cells per well. These cells were then treated with selected compounds (4, 5, and 8) at their respective IC50 concentrations and incubated for 72 h. Subsequently, a commercially available kit, the FITC: Annexin V Apoptosis Detection Kit I from BD Biosciences Pharmingen in San Jose, CA, USA, was utilized to assess apoptosis. After 72 h the cells were harvested, washed, and labeled with Annexin V-FITC and propidium iodide (PI) following the manufacturer’s protocol (Becton Dickinson), as previously described. The stained cells were analyzed by flow cytometry. The cells were identified as early apoptotic (Annexin V+/PI−) or late apoptotic/necrotic (Annexin V+/PI+)."}, "MiaPaCa-2 cells": {"test_system": "MiaPaCa-2 cells", "assay": "Annexin V-FITC/PI apoptosis flow cytometry, MiaPaCa-2", "format": "cell-based, human", "conditions": "representative dot plot, Figure 4B, IC50, 72 h", "description": "as §4"}, "HCT116 cells [7]": {"test_system": "HCT116 cells", "assay": "Annexin V-FITC/PI apoptosis flow cytometry, HCT116", "format": "cell-based, human", "conditions": "representative dot plot, Figure 4C, IC50, 72 h", "description": "as §4"}, "A549 cells [8]": {"test_system": "A549 cells", "assay": "Cell cycle analysis by flow cytometry, A549", "format": "cell-based, human", "conditions": "compound at IC50, 24 h", "description": "(§5) In brief, cells were seeded at a density of 1 × 10^5 cells/well on a six-well plate and allowed to adhere for 24 h. […] Both population cells (the attached and detached) were collected and centrifuged at 400× g for 5 min at 4 °C. After centrifugation, the cells were washed twice with 0.9% NaCl and subsequently fixed in 500 μL of 70 % cold ethanol overnight.\n(§6) Before analysis, the fixed cells underwent another centrifugation step at 850× g for 5 min at 4 °C and were washed with PBS. Following the washes, the cells were incubated with 50 μL of RNase (100 μg/mL) and 200 μL of propidium iodide (PI) (50 μg/mL) at 37 °C for 30 min in the dark. Finally, 100 μL of PBS was added to each sample. Flow cytometry (Becton Dickinson FACS Verse, Franklin Lakes, NJ, USA) was then used to analyze the cell cycle distribution, identifying cells in various stages including sub-G1, G0/G1, S, and G2/M phases. Each assay was performed in quadruplicate."}, "HCT116 cells [9]": {"test_system": "HCT116 cells", "assay": "Cell cycle analysis by flow cytometry, HCT116", "format": "cell-based, human", "conditions": "IC50, 24 h, compared to the control", "description": "as §5, §6"}, "[10]": {"conditions": "SI = IC50 for normal cell line (HaCaT)/IC50 cancer cell line"}}}
{"smiles": "O=C(NCCCl)NCCCCN1c2cc(Cl)ccc2Sc2cc3ccccc3nc21", "note": "[Compound 21, 1-(4-(8-Chloroquino[3,2-b]benzo[1,4]thiazin-6-yl)butyl)-3-(2-chloroethyl)urea]", "values": [{"measurement": "IC50", "setting": "A549 (lung cancer)", "value": "6.98 ± 1.2", "unit": "µM"}, {"measurement": "IC50", "setting": "[1]; Homo sapiens, MDA-MB-231, 72 h, read-out: IC50 MDA", "value": "7.4 ± 1.2", "unit": "µM"}, {"measurement": "SI MDA", "setting": "[1]; [10]", "value": 0.15}, {"measurement": "IC50", "setting": "[2]", "value": "1.1 ± 0.3", "unit": "µM"}, {"measurement": "IC50", "setting": "[3]; Homo sapiens, MIA PaCa-2, 72 h, read-out: IC50 MiaPaCa-2", "value": "6.4 ± 2.4", "unit": "µM"}, {"measurement": "SI MiaPaCa-2", "setting": "[3]; [10]", "value": 0.2}, {"measurement": "IC50", "setting": "PC3 (prostate cancer); Homo sapiens, PC-3, 72 h, read-out: IC50 PC3", "value": "76.6 ± 9.8", "unit": "µM"}, {"measurement": "SI PC3", "setting": "PC3 (prostate cancer); [10]", "value": 0.1}, {"measurement": "IC50", "setting": "HCT116 (colon cancer); Homo sapiens, HCT-116, 72 h, read-out: IC50 HCT116", "value": "11.3 ± 2.2", "unit": "µM"}, {"measurement": "SI HCT116", "setting": "HCT116 (colon cancer); [10]", "value": 0.1}, {"measurement": "MIC E. coli ATCC 25922", "setting": "E. coli ATCC 25922; 19 h, 35 °C", "value": 8, "unit": "µg/mL"}, {"measurement": "MIC", "setting": "E. coli ATCC 25922; Escherichia coli, ATCC25922, 19 h, read-out: MIC E. coli ATCC 25922", "value": 8, "unit": "µg/mL"}, {"measurement": "MIC", "setting": "P. aeruginosa ATCC 15442", "value": "> 256", "unit": "µg/mL"}, {"measurement": "MIC", "setting": "S. aureus ATCC 25923", "value": 2, "unit": "µg/mL"}, {"measurement": "MIC", "setting": "S. aureus ATCC 29213", "value": 2, "unit": "µg/mL"}, {"measurement": "MIC", "setting": "S. aureus ATCC 6538", "value": 2, "unit": "µg/mL"}, {"measurement": "MIC", "setting": "S. aureus NCTC 4163", "value": 2, "unit": "µg/mL"}, {"measurement": "MIC", "setting": "[4]", "value": 2, "unit": "µg/mL"}, {"measurement": "MIC", "setting": "[5]", "value": 2, "unit": "µg/mL"}, {"measurement": "IC50", "setting": "cancer cell lines", "value": "6.4 to 11.3", "unit": "µM"}, {"measurement": "A549: Alive", "setting": "A549 cells [6]", "value": 3.27, "unit": "%"}, {"measurement": "A549: Early Apoptotic", "setting": "A549 cells [6]", "value": 1.31, "unit": "%"}, {"measurement": "A549: Necrotic", "setting": "A549 cells [6]", "value": 15.90, "unit": "%"}, {"measurement": "A549: Necrotic/Late Apoptotic", "setting": "A549 cells [6]", "value": 79.52, "unit": "%"}, {"measurement": "MiaPaca: Alive", "setting": "MiaPaCa-2 cells", "value": 8.66, "unit": "%"}, {"measurement": "MiaPaca: Early Apoptotic", "setting": "MiaPaCa-2 cells", "value": 2.45, "unit": "%"}, {"measurement": "MiaPaca: Necrotic", "setting": "MiaPaCa-2 cells", "value": 37.47, "unit": "%"}, {"measurement": "MiaPaca: Necrotic/Late Apoptotic", "setting": "MiaPaCa-2 cells", "value": 51.42, "unit": "%"}, {"measurement": "HCT-116: Alive", "setting": "HCT116 cells [7]", "value": 17.91, "unit": "%"}, {"measurement": "HCT-116: Early Apoptotic", "setting": "HCT116 cells [7]", "value": 1.71, "unit": "%"}, {"measurement": "HCT-116: Necrotic", "setting": "HCT116 cells [7]", "value": 5.16, "unit": "%"}, {"measurement": "HCT-116: Necrotic/Late Apoptotic", "setting": "HCT116 cells [7]", "value": 75.22, "unit": "%"}, {"measurement": "percentage of Sub G1 phase A549 cells", "setting": "A549 cells [8]", "value": 27.6, "unit": "%"}, {"measurement": "increase in the cell amount at the sub-G1 phase, HCT116", "setting": "HCT116 cells [9]", "value": 12, "unit": "fold"}, {"measurement": "increase in the number of cells in the G2/M phase, HCT116", "setting": "HCT116 cells [9]", "value": "approximately 1.3 fold"}, {"measurement": "increase in the number of cells in the S phase, HCT116", "setting": "HCT116 cells [9]", "value": "approximately 2 fold"}]}
